Results reported in patent publication US4446137A, “Cephalosporin derivative and pharmaceutical composition containing the derivative” (Kureha Kagaku Kogyo Kabushiki Kaisha, priority 1981, dated 1984).

Columns and labels:
[1] = system: Pseudomonas aeruginosa; experiment: Effect on the intestinal bacterial colonies: Ps. aeruginosa count in mouse feces; assay type: in vivo
Description: (§1) Each of the cephalosporin derivatives of the invention prepared in Examples 1 to 4 was orally administered to mice (one group consisting of five female ICR mice of 6-week-old) for two consecutive days at a dose of 500 mg/kg/day.
(§2) Before and one day after the administration, feces of each mouse was collected and diluted with an anaerobic diluent (phosphoric buffer solution) of 100 times by volume and the diluted feces was ground. 0.1 ml of the diluted and ground feces was smeared on each culture medium shown in Table 1 and cultured aerobically or anaerobically (according to the anaerobic glove box method) under each condition shown in Table 1 and the number of each bacterium shown in Table 1 was counted.
NAC agar aerobic, 37° C.,

[2] = system: Streptococcus spp.; experiment: Effect on the intestinal bacterial colonies: Streptococcus spp. count in mouse feces; assay type: in vivo
Description: as §1, §2
TATAC agar aerobic, 37° C.,

[3] = system: Escherichia coli; experiment: Effect on the intestinal bacterial colonies: E. coli count in mouse feces; assay type: in vivo
Description: as §1, §2
DHL agar aerobic, 37° C.,

[4] = system: Bacteroides; experiment: Effect on the intestinal bacterial colonies: Bacteroides count in mouse feces; assay type: in vivo
Description: as §1, §2
Bacteroides NBGT agar anaerobic, 37° C.,

[5] = system: Lactobacillus bifidus; experiment: Effect on the intestinal bacterial colonies: L. bifidus count in mouse feces; assay type: in vivo
Description: as §1, §2
BS agar anaerobic, 37° C.,

[6] = system: Lactobacillus acidophilus; experiment: Effect on the intestinal bacterial colonies: L. acidophilus count in mouse feces; assay type: in vivo
Description: as §1, §2
Lactobacillus acidophilus
LBS agar anaerobic, 37° C.,

[7] = system: Staphylococcus aureus IAM 1011; experiment: Activation by rat liver homogenate (S-9 mix), proliferation-inhibiting circle, penicillin cup; assay type: cell-based; conditions: 37° C., 20 min, ratio of circle diameter to that of the starting compound; for Proliferation-inhibiting index, before adding S-9 mix (control): phosphoric buffer instead of S-9 mix; for Proliferation-inhibiting index, after adding S-9 mix: rat liver S-9 mix; on all read-outs here: ranges in brackets are in %
Description: As an activating enzyme of metabolism, a rat liver homogenate (S-9, manufactured by Oriental Yeast Company, Japan) was used in the following composition per 1 ml (hereinafter referred to as S-9 mix). |S-9 0.5 ml |KCl 3.3 μmol |MgCl2.6H2 O 8 μmol |Glucose 6-phosphate 5 μmol |NADH 4 μmol |NADPH 4 μmol |0.2 M phosphoric buffer solution | 0.5 ml |(pH of 7.4) 0.1 ml of the solution of each of the cephalosporin derivatives of the invention prepared in Examples 1 to 4 at a concentration of 100 μg/ml was mixed with 0.9 ml of S-9 mix or 0.9 ml of 0.1 M phosphoric buffer solution (as a control) and the obtained mixture was incubated at 37° C. for 20 min with shaking. Staphylococcus aureus IAM 1011 was inoculated into a Mueller-Hinton's culture medium and cultured at 37° C. for 18 hours. The culture medium was adjusted to a cell concentration of 1×10^8 per 1 ml and mixed with 50 times by volume of Mueller-Hinton's agar culture medium to obtain an agar plate. A penicillin cup of 8 mm in diameter was placed on the agar plate prepared above, and into the cup 0.1 ml of the mixture containing the cephalosporin derivative prepared above was introduced and allowed to stand at 4° C. for 2 hours, and then cultured at 37° C. for 18 hours to measure the diameter of a circle in which the proliferation of bacteria was inhibited (proliferation-inhibiting circle). In Table 4, the proliferation-inhibiting index is shown in the ratio (%) of the diameter of the proliferation-inhibiting circle obtained by using each of the cephalosporin derivatives of the invention to that obtained by using each of the starting compound in preparing each of the cephalosporin derivatives of the invention.

[8] = system: Escherichia coli IFO 12734; experiment: Antibacterial activity (MIC), agar plate, E. coli; assay type: cell-based; parameters: unit not given beside the values; conditions: Mueller-Hinton agar, 37° C., 18 to 24 hours; unit not given
Description: (§3) Antibacterial activity of each of the cephalosporin derivatives of the invention prepared in Examples 1 to 4 was examined against the following two bacteria according to the standard method of Japan Society of Chemitherapy: Escherichia coli IFO 12734 and Staphylococcus aureus IAM 1011.
(§4) Each bacterial strain was inoculated into the Mueller-Hinton's culture medium and cultured at 37° C. for 18 to 48 hours. The cultured medium was diluted so as to contain 1×10^6 cells of the bacteria per one ml, and the obtained medium was used as the bacterial specimen.
(§5) Agar plates were prepared by adding one part by weight of each solution of the cephalosporin derivative of the invention at a predetermined concentration to nine parts by weight of Mueller-Hinton's culture medium.
(§6) A loopful amount of the bacterial specimen prepared above was smeared to make a streak of about 2 cm on each agar plate prepared above and cultured at 37° C. for 18 to 24 hours.
(§7) The minimum concentration for completely inhibiting proliferation of the bacteria (referred to as MIC) was determined.

[9] = system: Staphylococcus aureus IAM 1011; experiment: Antibacterial activity (MIC), agar plate, Staph. aureus; assay type: cell-based; parameters: unit not given beside the values; conditions: Mueller-Hinton agar, 37° C., 18 to 24 hours; unit not given
Description: as §3, §4, §5, §6, §7

[10] = female ICR mice, oral 500 mg/kg/day for two days, one day after administration, before administration 6.4

Logarithmic value of the number of bacterial cells per one g of feces: Ps. aeruginosa ([1]; in vivo, po, 500 mg/kg/day)	MIC, E. coli [8]	Logarithmic value of the number of bacterial cells per one g of feces: Strept. spp. ([2]; in vivo, po, 500 mg/kg/day)	Logarithmic value of the number of bacterial cells per one g of feces: E. coli [3, 10]	MIC, Staph. aureus [9]	Logarithmic value of the number of bacterial cells per one g of feces: Bacteroides ([4]; in vivo, po, 500 mg/kg/day)	Logarithmic value of the number of bacterial cells per one g of feces: L. bifidus ([5]; in vivo, po, 500 mg/kg/day)	Logarithmic value of the number of bacterial cells per one g of feces: L. acidophilus ([6]; in vivo, po, 500 mg/kg/day)	Structure (SMILES)	Logarithmic value of the number of bacterial cells per one g of feces: Ps. aeruginosa ([1]; female ICR mice, oral 500 mg/kg/day for two days, one day after administration, before administration <3.0)	Logarithmic value of the number of bacterial cells per one g of feces: Strept. spp. ([2]; female ICR mice, oral 500 mg/kg/day for two days, one day after administration, before administration 6.8)	change of the number of Escherichia coli compared to before administration ([3]; in vivo)	Logarithmic value of the number of bacterial cells per one g of feces: E. coli ([3]; in vivo, po, 500 mg/kg/day)	Logarithmic value of the number of bacterial cells per one g of feces: Bacteroides ([4]; female ICR mice, oral 500 mg/kg/day for two days, one day after administration, before administration 8.3)	Logarithmic value of the number of bacterial cells per one g of feces: L. bifidus ([5]; female ICR mice, oral 500 mg/kg/day for two days, one day after administration, before administration 8.4)	Logarithmic value of the number of bacterial cells per one g of feces: L. acidophilus ([6]; female ICR mice, oral 500 mg/kg/day for two days, one day after administration, before administration 9.0)	change of Lactobacillus acidophilus ([6]; mouse feces, result in words)	Proliferation-inhibiting index, before adding S-9 mix (control) [7]	Proliferation-inhibiting index, after adding S-9 mix [7]
–	–	–	–	–	–	–	–	CC(=O)OCC1=C(C(=O)O)N2C(=O)[C@@H](NC(=O)Cc3cccs3)[C@H]2SC1 [Cephalotin, reference compound]	< 3.0 Logarithmic value of the numbe	9.0 Logarithmic value of the numbe	increased	9.9 Logarithmic value of the numbe	7.2 Logarithmic value of the numbe	9.2 Logarithmic value of the numbe	4.1 Logarithmic value of the numbe	decreased	–	–
< 3.3 Logarithmic value of the numbe	≥ 100	7.0 Logarithmic value of the numbe	6.3 Logarithmic value of the numbe	≥ 12.5	8.5 Logarithmic value of the numbe	8.6 Logarithmic value of the numbe	9.0 Logarithmic value of the numbe	COC(=O)C[C@H](NC(=O)C1=C(COC(C)=O)CSC2C(NC(=O)Cc3cccs3)C(=O)N12)C(=O)OC (stereo partly drawn) [Example 1, N-[1,2-bis(carbomethoxy)ethyl]-7-(thienyl-2-acetamido)cephalosporanic acid amide]	–	–	–	–	–	–	–	–	- (0)	± (0-1)
< 3.0 Logarithmic value of the numbe	≥ 100	6.6 Logarithmic value of the numbe	6.4 Logarithmic value of the numbe	≥ 12.5	8.8 Logarithmic value of the numbe	8.3 Logarithmic value of the numbe	8.9 Logarithmic value of the numbe	COC(=O)[C@H](CCSC)NC(=O)C1=C(COC(C)=O)CSC2C(NC(=O)Cc3cccs3)C(=O)N12 (stereo partly drawn) [Example 2, N-(1-carbomethoxy-3-thiomethylpropyl)-7-(thienyl-2-acetamido)cephalosporanic acid amide]	–	–	–	–	–	–	–	–	- (0)	± (0-1)
< 3.0 Logarithmic value of the numbe	≥ 100	6.3 Logarithmic value of the numbe	6.5 Logarithmic value of the numbe	≥ 12.5	8.7 Logarithmic value of the numbe	8.2 Logarithmic value of the numbe	8.9 Logarithmic value of the numbe	CCOC(=O)C(Cc1ccc(O)cc1)NC(=O)C1=C(COC(C)=O)CSC2C(NC(=O)Cc3cccs3)C(=O)N12 (stereo not drawn) [Example 3, N-[1-carboethoxy-2-(4-hydroxyphenyl)ethyl]-7-(thienyl-2-acetamido)cephalosporanic acid amide]	–	–	–	–	–	–	–	–	- (0)	± (0-1)
< 3.9 Logarithmic value of the numbe	≥ 100	7.0 Logarithmic value of the numbe	6.0 Logarithmic value of the numbe	12.5	8.3 Logarithmic value of the numbe	8.9 Logarithmic value of the numbe	9.4 Logarithmic value of the numbe	COC(=O)CCC(NC(=O)C1=C(COC(C)=O)CSC2C(NC(=O)Cc3cccs3)C(=O)N12)C(=O)OC (stereo not drawn) [Example 4, N-[1,3-bis(carbomethoxy)propyl]-7-(thienyl-2-acetamido)cephalosporanic acid amide]	–	–	–	–	–	–	–	–	+ (1-33)	++ (33-66)
